Laboratory results from ChEMBL document CHEMBL6182847, “Design, synthesis, and biological evaluation of novel aminopyrimidine derivatives as EGFR inhibitors” (Bioorg Med Chem Lett, 2025).

biological target: Epidermal growth factor receptor (Homo sapiens, UniProt P00533, C797S/L858R/T790M); test: Inhibition of EGFR L858R/T790M/C797S mutant (unknown origin); conditions: not given
Sequence (P00533 25-1210 T790M/C797S/L858R limits assumed): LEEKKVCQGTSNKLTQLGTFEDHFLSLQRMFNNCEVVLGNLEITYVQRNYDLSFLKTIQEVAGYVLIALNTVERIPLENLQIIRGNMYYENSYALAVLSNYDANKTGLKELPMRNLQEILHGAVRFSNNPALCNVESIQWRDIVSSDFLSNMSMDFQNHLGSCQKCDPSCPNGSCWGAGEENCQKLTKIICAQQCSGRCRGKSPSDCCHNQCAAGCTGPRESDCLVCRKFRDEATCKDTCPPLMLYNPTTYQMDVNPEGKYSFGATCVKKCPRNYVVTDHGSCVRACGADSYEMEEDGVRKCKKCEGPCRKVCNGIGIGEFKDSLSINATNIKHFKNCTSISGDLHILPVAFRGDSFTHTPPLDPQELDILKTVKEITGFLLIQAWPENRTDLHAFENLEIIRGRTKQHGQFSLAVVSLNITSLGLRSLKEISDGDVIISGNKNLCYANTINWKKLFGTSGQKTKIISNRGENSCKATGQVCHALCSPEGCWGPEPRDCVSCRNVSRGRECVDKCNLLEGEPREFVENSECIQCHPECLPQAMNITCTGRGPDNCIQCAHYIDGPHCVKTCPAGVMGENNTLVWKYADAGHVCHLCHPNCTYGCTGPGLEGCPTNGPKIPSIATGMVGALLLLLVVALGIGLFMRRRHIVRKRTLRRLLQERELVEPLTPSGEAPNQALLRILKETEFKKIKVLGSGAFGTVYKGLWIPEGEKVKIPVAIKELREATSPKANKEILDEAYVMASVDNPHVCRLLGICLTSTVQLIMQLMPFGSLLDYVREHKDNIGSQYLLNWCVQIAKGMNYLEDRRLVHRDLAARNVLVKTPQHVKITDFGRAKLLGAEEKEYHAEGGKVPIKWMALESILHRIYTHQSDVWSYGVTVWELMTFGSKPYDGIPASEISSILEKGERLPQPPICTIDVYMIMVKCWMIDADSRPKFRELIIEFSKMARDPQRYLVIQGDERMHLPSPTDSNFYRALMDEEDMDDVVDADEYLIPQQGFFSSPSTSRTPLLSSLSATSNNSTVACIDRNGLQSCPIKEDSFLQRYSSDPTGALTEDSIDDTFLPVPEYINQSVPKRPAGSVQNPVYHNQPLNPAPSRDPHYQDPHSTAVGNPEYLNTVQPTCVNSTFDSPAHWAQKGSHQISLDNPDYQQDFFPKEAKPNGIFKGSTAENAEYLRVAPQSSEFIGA

SMILES	IC50 [nM]
COc1cc(N2CCC(N3CCN(C)CC3)CC2)c(C)cc1Nc1nccc(-n2cc(NC(=O)C3CC3)cn2)n1	37.6
COc1cc(N2CCC(N3CCN(C)CC3)CC2)c(C)cc1Nc1ncc(Br)c(-n2ccc(-c3ccccc3NS(=O)(=O)C3CC3)n2)n1	93.8
C=CC(=O)Nc1cnn(-c2ccnc(Nc3cc(C)c(N4CCC(N5CCN(C)CC5)CC4)cc3OC)n2)c1	78.2
COc1cc(N2CCC(N3CCN(C)CC3)CC2)c(C)cc1Nc1nccc(-n2cc(NS(=O)(=O)C3CC3)cn2)n1	18.8
COc1cc(N2CCC(N3CCN(C)CC3)CC2)c(C)cc1Nc1nccc(-n2cc(NC(=O)C=C(C)C)cn2)n1	53.4

biological target: Epidermal growth factor receptor (Homo sapiens, UniProt P00533); test: Inhibition of wild-type EGFR (unknown origin); conditions: not given
Sequence (P00533 whole entry): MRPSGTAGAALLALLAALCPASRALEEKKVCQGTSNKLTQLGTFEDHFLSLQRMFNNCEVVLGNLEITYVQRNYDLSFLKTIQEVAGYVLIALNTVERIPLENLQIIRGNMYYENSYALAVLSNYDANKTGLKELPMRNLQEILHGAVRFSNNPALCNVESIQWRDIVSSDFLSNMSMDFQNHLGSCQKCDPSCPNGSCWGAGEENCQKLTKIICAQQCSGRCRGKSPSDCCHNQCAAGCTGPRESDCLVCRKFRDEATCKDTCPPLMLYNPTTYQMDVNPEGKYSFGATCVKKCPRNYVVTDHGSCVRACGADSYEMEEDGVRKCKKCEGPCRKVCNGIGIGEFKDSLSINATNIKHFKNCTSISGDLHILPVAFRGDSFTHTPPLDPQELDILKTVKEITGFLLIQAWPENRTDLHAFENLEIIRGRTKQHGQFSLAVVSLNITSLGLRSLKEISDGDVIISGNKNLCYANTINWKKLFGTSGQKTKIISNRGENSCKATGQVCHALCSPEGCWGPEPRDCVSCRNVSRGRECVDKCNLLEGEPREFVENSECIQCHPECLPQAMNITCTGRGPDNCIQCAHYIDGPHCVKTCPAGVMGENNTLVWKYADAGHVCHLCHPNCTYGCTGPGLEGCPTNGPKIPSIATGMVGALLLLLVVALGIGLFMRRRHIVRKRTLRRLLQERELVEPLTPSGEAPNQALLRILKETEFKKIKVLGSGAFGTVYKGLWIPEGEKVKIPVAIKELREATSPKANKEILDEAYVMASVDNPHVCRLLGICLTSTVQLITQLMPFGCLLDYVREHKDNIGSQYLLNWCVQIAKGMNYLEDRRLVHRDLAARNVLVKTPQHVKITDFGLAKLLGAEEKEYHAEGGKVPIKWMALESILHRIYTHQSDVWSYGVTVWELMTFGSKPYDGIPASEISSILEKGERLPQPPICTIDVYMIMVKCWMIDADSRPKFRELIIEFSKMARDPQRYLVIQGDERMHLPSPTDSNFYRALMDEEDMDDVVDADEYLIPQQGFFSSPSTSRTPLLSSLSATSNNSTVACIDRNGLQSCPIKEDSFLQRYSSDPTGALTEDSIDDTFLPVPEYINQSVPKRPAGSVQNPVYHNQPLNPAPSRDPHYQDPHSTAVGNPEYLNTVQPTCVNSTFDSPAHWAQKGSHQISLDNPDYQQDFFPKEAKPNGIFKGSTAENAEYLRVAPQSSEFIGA

SMILES	IC50 [nM]
COc1cc(N2CCC(N3CCN(C)CC3)CC2)c(C)cc1Nc1nccc(-n2cc(NC(=O)C3CC3)cn2)n1	338
COc1cc(N2CCC(N3CCN(C)CC3)CC2)c(C)cc1Nc1ncc(Br)c(-n2ccc(-c3ccccc3NS(=O)(=O)C3CC3)n2)n1	> 5000
C=CC(=O)Nc1cnn(-c2ccnc(Nc3cc(C)c(N4CCC(N5CCN(C)CC5)CC4)cc3OC)n2)c1	485
COc1cc(N2CCC(N3CCN(C)CC3)CC2)c(C)cc1Nc1nccc(-n2cc(NS(=O)(=O)C3CC3)cn2)n1	159
COc1cc(N2CCC(N3CCN(C)CC3)CC2)c(C)cc1Nc1nccc(-n2cc(NC(=O)C=C(C)C)cn2)n1	382

test system: not listed separately; test: Potency index, ratio of Brigatinib IC50 to test compound IC50 for antiproliferative activity against mouse Ba/F3 EGFR-T790M/C797S/L858R cells; type: functional; conditions: not given

SMILES	Ratio IC50
COc1cc(N2CCC(N3CCN(C)CC3)CC2)c(C)cc1Nc1nccc(-n2cc(NS(=O)(=O)C3CC3)cn2)n1	5

test system: Epidermal growth factor receptor (Homo sapiens), P00533 [L858R,T790M,C797S]; test: not given; conditions: dose 500.0 nM
Sequence (P00533 whole entry T790M/C797S/L858R): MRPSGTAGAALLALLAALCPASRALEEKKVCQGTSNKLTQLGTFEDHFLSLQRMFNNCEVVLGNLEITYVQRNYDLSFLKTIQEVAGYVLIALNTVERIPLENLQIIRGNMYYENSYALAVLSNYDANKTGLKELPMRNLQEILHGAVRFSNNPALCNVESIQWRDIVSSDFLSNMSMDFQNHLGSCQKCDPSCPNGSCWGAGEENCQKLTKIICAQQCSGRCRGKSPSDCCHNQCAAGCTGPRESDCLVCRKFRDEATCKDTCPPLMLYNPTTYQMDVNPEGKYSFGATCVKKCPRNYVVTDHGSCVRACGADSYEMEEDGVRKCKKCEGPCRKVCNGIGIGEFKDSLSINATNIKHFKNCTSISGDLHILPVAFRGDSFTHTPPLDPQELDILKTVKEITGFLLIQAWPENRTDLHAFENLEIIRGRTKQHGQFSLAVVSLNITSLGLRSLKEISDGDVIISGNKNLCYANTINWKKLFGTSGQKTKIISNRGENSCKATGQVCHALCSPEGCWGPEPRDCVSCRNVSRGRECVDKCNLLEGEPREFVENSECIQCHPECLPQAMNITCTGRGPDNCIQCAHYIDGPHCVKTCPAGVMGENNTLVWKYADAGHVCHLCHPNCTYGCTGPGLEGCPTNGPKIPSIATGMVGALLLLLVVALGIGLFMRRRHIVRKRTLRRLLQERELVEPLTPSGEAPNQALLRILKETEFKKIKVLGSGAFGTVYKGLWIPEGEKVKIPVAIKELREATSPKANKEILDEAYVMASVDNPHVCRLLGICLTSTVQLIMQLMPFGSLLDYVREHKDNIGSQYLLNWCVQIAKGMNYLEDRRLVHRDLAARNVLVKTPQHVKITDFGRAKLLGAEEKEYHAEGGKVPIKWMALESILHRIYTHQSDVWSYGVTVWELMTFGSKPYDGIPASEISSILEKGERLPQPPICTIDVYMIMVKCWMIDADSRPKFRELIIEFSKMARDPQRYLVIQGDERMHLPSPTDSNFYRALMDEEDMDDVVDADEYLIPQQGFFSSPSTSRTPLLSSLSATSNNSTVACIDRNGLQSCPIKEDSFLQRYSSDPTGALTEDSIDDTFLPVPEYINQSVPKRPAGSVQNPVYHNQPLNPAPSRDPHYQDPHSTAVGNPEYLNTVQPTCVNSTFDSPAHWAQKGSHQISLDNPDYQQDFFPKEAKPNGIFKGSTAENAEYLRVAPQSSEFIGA

SMILES	inhibition [%]
COc1cc(N2CCC(N3CCN(C)CC3)CC2)c(C)cc1Nc1nccc(-n2cc(NS(=O)(=O)C(C)C)cn2)n1	90.2
COc1cc(N2CCC(N3CCN(C)CC3)CC2)c(C)cc1Nc1nccc(-n2cc(NC(=O)C3CC3)cn2)n1	89.8
CCC(=O)Nc1cnn(-c2ccnc(Nc3cc(C)c(N4CCC(N5CCN(C)CC5)CC4)cc3OC)n2)c1	85.4
C/C=C/C(=O)Nc1cnn(-c2ccnc(Nc3cc(C)c(N4CCC(N5CCN(C)CC5)CC4)cc3OC)n2)c1	81.9
C=CC(=O)Nc1cnn(-c2ccnc(Nc3cc(C)c(N4CCN(C(C)C)CC4)cc3OC)n2)c1	46.1
C=CC(=O)Nc1cnn(-c2ccnc(Nc3cc(C)c(N4CCN(C)CC4)cc3OC)n2)c1	47.3
COc1cc(N2CCC(N3CCN(C)CC3)CC2)c(C)cc1Nc1nccc(-n2cc(NC(=O)C(C)C)cn2)n1	80.4
C=CC(=O)Nc1cnn(-c2ccnc(Nc3cc(C)c(N4CCOCC4)cc3OC)n2)c1	48.5
COc1cc(N2CCC(N3CCN(C)CC3)CC2)c(C)cc1Nc1nccc(-n2cc(NS(C)(=O)=O)cn2)n1	88.1
CCCCS(=O)(=O)Nc1cnn(-c2ccnc(Nc3cc(C)c(N4CCC(N5CCN(C)CC5)CC4)cc3OC)n2)c1	90.2
COc1cc(N2CCC(N3CCN(C)CC3)CC2)c(C)cc1Nc1ncc(Br)c(-n2ccc(-c3ccccc3NS(=O)(=O)C3CC3)n2)n1	81.8
CCS(=O)(=O)Nc1cnn(-c2ccnc(Nc3cc(C)c(N4CCC(N5CCN(C)CC5)CC4)cc3OC)n2)c1	89
C=CC(=O)Nc1cnn(-c2ccnc(Nc3cc(C)c(N4CCN(S(C)(=O)=O)CC4)cc3OC)n2)c1	54.3
C=CC(=O)Nc1cnn(-c2ccnc(Nc3cc(C)c(N4CCC(N5CCN(C)CC5)CC4)cc3OC)n2)c1	80
C=CC(=O)Nc1cnn(-c2ccnc(Nc3cc(C)c(N4CCN(C(C)=O)CC4)cc3OC)n2)c1	48.8
COc1cc(N2CCC(N3CCN(C)CC3)CC2)c(C)cc1Nc1nccc(-n2cc(NS(=O)(=O)C3CC3)cn2)n1	93.2
CCS(=O)(=O)Nc1ccccc1-c1ccn(-c2nc(Nc3cc(C)c(N4CCC(N5CCN(C)CC5)CC4)cc3OC)ncc2Br)n1	71.4
C=CC(=O)Nc1cnn(-c2ccnc(Nc3cc(C)c(N4CCC(N(C)C)CC4)cc3OC)n2)c1	61.1
CCCS(=O)(=O)Nc1cnn(-c2ccnc(Nc3cc(C)c(N4CCC(N5CCN(C)CC5)CC4)cc3OC)n2)c1	89.1
C=C(C)C(=O)Nc1cnn(-c2ccnc(Nc3cc(C)c(N4CCC(N5CCN(C)CC5)CC4)cc3OC)n2)c1	83.8
C=CC(=O)Nc1cnn(-c2ccnc(Nc3cc(C)c(N4CCC(N5CCCC5)CC4)cc3OC)n2)c1	75.7
C=CC(=O)Nc1ccccc1-c1ccn(-c2nc(Nc3cc(C)c(N4CCC(N5CCN(C)CC5)CC4)cc3OC)ncc2Br)n1	79.9
COc1cc(N2CCC(N3CCN(C)CC3)CC2)c(C)cc1Nc1nccc(-n2cc(NC(=O)C=C(C)C)cn2)n1	87.2
COc1cc(N2CCC(N3CCN(C)CC3)CC2)c(C)cc1Nc1nccc(-n2cc(NC(C)=O)cn2)n1	82.6

test system: not listed separately; test: cells; conditions: Mus musculus, Ba/F3 EGFR-T790M/C797S/L858R
Description: Antiproliferative activity against mouse Ba/F3 EGFR-T790M/C797S/L858R cells

SMILES	IC50 [nM]
COc1cc(N2CCC(N3CCN(C)CC3)CC2)c(C)cc1Nc1nccc(-n2cc(NC(=O)C3CC3)cn2)n1	136
COc1cc(N2CCC(N3CCN(C)CC3)CC2)c(C)cc1Nc1ncc(Br)c(-n2ccc(-c3ccccc3NS(=O)(=O)C3CC3)n2)n1	340
C=CC(=O)Nc1cnn(-c2ccnc(Nc3cc(C)c(N4CCC(N5CCN(C)CC5)CC4)cc3OC)n2)c1	238
COc1cc(N2CCC(N3CCN(C)CC3)CC2)c(C)cc1Nc1nccc(-n2cc(NS(=O)(=O)C3CC3)cn2)n1	97.1
COc1cc(N2CCC(N3CCN(C)CC3)CC2)ccc1Nc1ncc(Cl)c(Nc2ccccc2P(C)(C)=O)n1 [BRIGATINIB]	542
COc1cc(N2CCC(N3CCN(C)CC3)CC2)c(C)cc1Nc1nccc(-n2cc(NC(=O)C=C(C)C)cn2)n1	213
